In patent US20240376094A2, “SELECTIVE BCL-XL PROTAC COMPOUNDS AND METHODS OF USE” (Les Laboratoires Servier, priority 2021, published 2024):

What was measured:
COR-L105 = assay: CellTiter-Glo proliferation assay, COR-L105; format: cell-based; conditions: COR-L105, 5 days; for Emax: read-out: COR-L105 Span (max)
Method in brief: (§1)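 Both lines grown in RPMI-1640 + 10% FBS. COR-L105 plated flat at 1,000 cells/well overnight; NCI-H1650 grown as spheroids, 3,000 cells/well, 72 h. Compounds at 0.508 nM-10 μM final for 5 days, 37° C. ATP read by CellTiter-Glo (3D version for spheroids); IC50 from variable-slope fit normalized to untreated cells.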

NCI-H1650 = assay: CellTiter-Glo 3D proliferation assay, NCI-H1650 spheroids; format: cell-based; conditions: 5 days; for Emax: read-out: NCI-H1650 Span (Amax)
Method in brief: as §1

SMILES	IC50 (NCI-H1650) [nM]	IC50 (NCI-H1650; Homo sapiens, NCI-H1650, 120 h) [nM]	IC50 (COR-L105) [nM]	IC50 (COR-L105; Homo sapiens, COR-L105, 120 h) [nM]	Emax (COR-L105; Homo sapiens, COR-L105, 120 h) [%]	Emax (NCI-H1650; Homo sapiens, NCI-H1650, 120 h) [%]
Cc1ncsc1-c1ccc(CNC(=O)[C@@H]2CC(O)CN2C(=O)C(NC(=O)CCCCCCC(=O)N2CCN(CCOC34CC5(C)CC(C)(CC(Cn6ncc(-c7ccc(N8CCCc9c8nnc(Nc8nc%10ccccc%10s8)c9C)nc7C(=O)O)c6C)(C5)C3)C4)CC2)C(C)(C)C)cc1 (stereo in doubt) [Example 24, 6-[3-(1,3-benzothiazol-2-ylamino)-4-methyl-6,7-dihydro-5H-pyrido[2,3-c]pyridazin-8-yl]-3-[1-[[3-[2-[4-[8-[[(1S)-1-[(2S,4R)-4-hydroxy-2-[[4-(4-methylthiazol-5-yl)phenyl]methylcarbamoyl]pyrrolidine-1-carbonyl]-2,2-dimethyl-propyl]amino]-8-oxo-octanoyl]piperazin-1-yl]ethoxy]-5,7-dimethyl-1-adamantyl]methyl]-5-methyl-pyrazol-4-yl]pyridine-2-carboxylic acid]	92.9	95	348	500	104	89.1
Cc1ncsc1-c1ccc(CNC(=O)[C@@H]2C[C@@H](O)CN2C(=O)[C@@H](NC(=O)CCCCCCC(=O)N2CCN(CC#Cc3ccc(OCCCc4sc(N5CCCc6c5nnc(Nc5nc7ccccc7s5)c6C)nc4C(=O)O)c(F)c3)CC2)C(C)(C)C)cc1 [Example 33, 2-(3-(benzo[d]thiazol-2-ylamino)-4-methyl-6,7-dihydropyrido [2,3-c]pyridazin-8(5H)-yl)-5-(3-(2-fluoro-4-(3-(4-(8-(((S)-1-((2S,4R)-4-hydroxy-2-((4-(4-methylthiazol-5-yl)benzyl)carbamoyl)pyrrolidin-1-yl)-3,3-dimethyl-1-oxobutan-2-yl)amino)-8-oxooctanoyl)piperazin-1-yl)prop-1-yn-1-yl)phenoxy)propyl) thiazole-4-carboxylic acid]	–	8.06	–	93.7	76.4	89.1
Cc1ncsc1-c1ccc([C@H](C)NC(=O)[C@@H]2C[C@@H](O)CN2C(=O)[C@@H](NC(=O)CCCC(=O)N2CCN(CC#Cc3ccc(OCCCc4sc(N5CCCc6c5nnc(Nc5nc7ccccc7s5)c6C)nc4C(=O)O)c(F)c3)CC2)C(C)(C)C)cc1 [Example 35, 2-(3-(benzo[d]thiazol-2-ylamino)-4-methyl-6,7-dihydropyrido [2,3-c]pyridazin-8(5H)-yl)-5-(3-(2-fluoro-4-(3-(4-(5-(((S)-1-((2S,4R)-4-hydroxy-2-(((S)-1-(4-(4-methylthiazol-5-yl)phenyl)ethyl)carbamoyl)pyrrolidin-1-yl)-3,3-dimethyl-1-oxobutan-2-yl)amino)-5-oxopentanoyl)piperazin-1-yl)prop-1-yn-1-yl)phenoxy)propyl)thiazole-4-carboxylic acid]	–	7.7	–	90.2	87.9	88.5
Cc1ncsc1-c1ccc([C@H](C)NC(=O)[C@@H]2C[C@@H](O)CN2C(=O)[C@@H](NC(=O)CC23CC4CC(C2)CC(CC(=O)N2CCN(CC#Cc5ccc(OCCCc6sc(N7CCCc8c7nnc(Nc7nc9ccccc9s7)c8C)nc6C(=O)O)c(F)c5)CC2)(C4)C3)C(C)(C)C)cc1 [Example 42, 2-(3-(benzo[d]thiazol-2-ylamino)-4-methyl-6,7-dihydropyrido [2,3-c]pyridazin-8(5H)-yl)-5-(3-(2-fluoro-4-(3-(4-(2-((3S,5R)-3-(2-(((S)-1-((2S,4R)-4-hydroxy-2-(((S)-1-(4-(4-methylthiazol-5-yl)phenyl)ethyl)carbamoyl)pyrrolidin-1-yl)-3,3-dimethyl-1-oxobutan-2-yl)amino)-2-oxoethyl)adamantan-1-yl)acetyl)piperazin-1-yl)prop-1-yn-1-yl)phenoxy)propyl)thiazole-4-carboxylic acid]	–	3.4	–	290	91.8	137
Cc1ncsc1-c1ccc([C@H](C)NC(=O)[C@@H]2C[C@@H](O)CN2C(=O)[C@@H](NC(=O)CCCCCCCCCCC(=O)N2CCN(CC#Cc3ccc(OCCCc4sc(N5CCCc6c5nnc(Nc5nc7ccccc7s5)c6C)nc4C(=O)O)c(F)c3)CC2)C(C)(C)C)cc1 [Example 46, 2-(3-(benzo[d]thiazol-2-ylamino)-4-methyl-6,7-dihydropyrido [2,3-c]pyridazin-8(5H)-yl)-5-(3-(2-fluoro-4-(3-(4-(12-(((S)-1-((2S,4R)-4-hydroxy-2-(((S)-1-(4-(4-methylthiazol-5-yl)phenyl)ethyl)carbamoyl)pyrrolidin-1-yl)-3,3-dimethyl-1-oxobutan-2-yl)amino)-12-oxododecanoyl)piperazin-1-yl)prop-1-yn-1-yl)phenoxy)propyl)thiazole-4-carboxylic acid]	–	4.91	–	163	101	83.2

Further lines, with some results ahead:

IC50 (NCI-H1650) [nM]	IC50 (NCI-H1650; Homo sapiens, NCI-H1650, 120 h) [nM]	SMILES	IC50 (COR-L105) [nM]	IC50 (COR-L105; Homo sapiens, COR-L105, 120 h) [nM]	Emax (COR-L105; Homo sapiens, COR-L105, 120 h) [%]	Emax (NCI-H1650; Homo sapiens, NCI-H1650, 120 h) [%]
–	12.5	Cc1ncsc1-c1ccc([C@H](C)NC(=O)[C@@H]2C[C@@H](O)CN2C(=O)[C@@H](NC(=O)CCCCCCCCCCC(=O)N2CCN(CCOC34CC5(C)CC(C)(CC(Cn6ncc(-c7ccc(N8CCCc9c8nnc(Nc8nc%10ccccc%10s8)c9C)nc7C(=O)O)c6C)(C5)C3)C4)CC2)C(C)(C)C)cc1 [Example 47, 6-(3-(benzo[d]thiazol-2-ylamino)-4-methyl-6,7-dihydropyrido [2,3-c]pyridazin-8(5H)-yl)-3-(1-(((1r,3s,5R,7S)-3-(2-(4-(12-(((S)-1-((2S,4R)-4-hydroxy-2-(((S)-1-(4-(4-methylthiazol-5-yl)phenyl)ethyl)carbamoyl)pyrrolidin-1-yl)-3,3-dimethyl-1-oxobutan-2-yl)amino)-12-oxododecanoyl)piperazin-1-yl)ethoxy)-5,7-dimethyladamantan-1-yl)methyl)-5-methyl-1H-pyrazol-4-yl)picolinic acid]	–	228	97.6	97.1
–	23.7	Cc1ncsc1-c1ccc(CNC(=O)[C@@H]2C[C@@H](O)CN2C(=O)[C@@H](NC(=O)CCCCCCCCCCC(=O)N2CCN(CC#Cc3ccc(OCCCc4sc(N5CCCc6c5nnc(Nc5nc7ccccc7s5)c6C)nc4C(=O)O)c(F)c3)CC2)C(C)(C)C)cc1 [Example 48, 2-(3-(benzo[d]thiazol-2-ylamino)-4-methyl-6,7-dihydropyrido [2,3-c]pyridazin-8(5H)-yl)-5-(3-(2-fluoro-4-(3-(4-(12-(((S)-1-((2S,4R)-4-hydroxy-2-((4-(4-methylthiazol-5-yl)benzyl)carbamoyl)pyrrolidin-1-yl)-3,3-dimethyl-1-oxobutan-2-yl)amino)-12-oxododecanoyl)piperazin-1-yl)prop-1-yn-1-yl)phenoxy)propyl)thiazole-4-carboxylic acid]	–	111	94	88.6
–	4.23	Cc1ncsc1-c1ccc([C@H](C)NC(=O)[C@@H]2C[C@@H](O)CN2C(=O)[C@@H](NC(=O)CCCCCCCCCCCN2CCN(CC#Cc3ccc(OCCCc4sc(N5CCCc6c5nnc(Nc5nc7ccccc7s5)c6C)nc4C(=O)O)c(F)c3)CC2)C(C)(C)C)cc1 [Example 51, 2-(3-(benzo[d]thiazol-2-ylamino)-4-methyl-6,7-dihydropyrido [2,3-c]pyridazin-8(5H)-yl)-5-(3-(2-fluoro-4-(3-(4-(12-(((S)-1-((2S,4R)-4-hydroxy-2-(((S)-1-(4-(4-methylthiazol-5-yl)phenyl)ethyl)carbamoyl)pyrrolidin-1-yl)-3,3-dimethyl-1-oxobutan-2-yl)amino)-12-oxododecyl)piperazin-1-yl)prop-1-yn-1-yl)phenoxy)propyl)thiazole-4-carboxylic acid]	–	37.6	72.8	90.8
